A value given as a limit tells only on which side of the number the result lay.

The test system of this test is IRE1-XBP1s (HEK293 T-REx cells stably expressing the XBP1-RLuc splicing reporter). Briefly: IRE1-XBP1s activation Assay (XBP1-RLuc splicing reporter, luminescence relative to thapsigargin, with or without IRE1 inhibitor 4μ8C). It counts as cell-based. The note with it: 18 h, compound 10 μM, luminescence as percentage signal relative to thapsigargin (Tg) (500 nM, 18 h). Here is the method: IRE1-XBP1s activation Assay: HEK293 T-REx cells stably expressing the XBP1-RLuc splicing reporter were treated with an IRE1-XBP1s activator provided herein (10 μM) in the presence or absence of the IRE1 active site inhibitor 4μ8C (32 μM) for 18 h. Luminescence was shown as the percentage signal relative to thapsigargin (Tg) (500 nM, 18 h).
For `Cc1ccc(OCCN(C)C(=O)Cn2cc(NC(=O)OC3CCCN(c4nccc(F)n4)C3)cn2)cc1` (stereo not shown) [Compound 131, 1-(4-fluoropyrimidin-2-yl)piperidin-3-yl (1-(2-(methyl (2-(p-tolyloxy)ethyl)-amino)-2-oxoethyl)-1H-pyrazol-4-yl)carbamate], the activation at 10 µM was under 30%.

`Cc1ccc(OCCN(C)C(=O)Cn2cc(NC(=O)COC3CCCN(c4nccc(F)n4)C3)cn2)cc1` (stereo not shown) [Compound 132] had an activation at 10 µM of under 30%.

As for `Cc1ccc(OCCN(C)C(=O)Cn2cc(NC(=O)C3CNCC3Nc3ccnc(O)n3)cn2)cc1` (stereo not shown) [Compound 133], the activation at 10 µM was under 30%.

`Cc1ccc(OC2CCC23CN(C(=O)Cn2cc(NC(=O)CCNc4nccc(F)n4)cn2)C3)cc1` (stereo not shown) [Compound 134]: the activation at 10 µM is under 30%.

As for `Cc1ccc(OCCN(C)C(=O)Cn2cc(NC(=O)C3CC(Nc4ccncc4)C3)cn2)cc1` (stereo not shown) [Compound 135], the activation at 10 µM was under 30%.

For `Cc1ccc(O[C@H]2CCCN(C(=O)Cn3cc(NC(=O)CCNc4nccc(F)n4)cn3)C2)cc1` [Compound 136], the activation at 10 µM is under 30%.

With `Cc1ccc(OCCN(C)C(=O)Cn2cc(NC(=O)COC3CCCN(c4ccnc(F)n4)C3)cn2)cc1` (stereo not shown) [Compound 137], the activation at 10 µM was under 30%.

For `Cc1ccc(OCCN(C)C(=O)Cn2cc(NC(=O)C3CN(c4ccccc4)C3)cn2)cc1` [Compound 138], the activation at 10 µM was under 30%.

In turn, `Cc1ccc(OCCN(C)C(=O)Cn2cc(NC(=O)C3CC(Oc4ccncc4)C3)cn2)cc1` (stereo not shown) [Compound 139, N-(1-(2-(methyl (2-(p-tolyloxy)ethyl)amino)-2-oxoethyl)-1H-pyrazol-4-yl)-3-(pyridin-4-yloxy)cyclobutane-1-carboxamide] gave an activation at 10 µM of at least 50%.

Consider `Cc1ccc(OCCN(C)C(=O)Cn2cc(NC(=O)C3CC(Oc4ccccn4)C3)cn2)cc1` (stereo not shown) [Compound 140], for which the activation at 10 µM was at least 50%.

The compound `Cc1ccc(OCCN(C)C(=O)Cn2cc(NC(=O)C3CC(Oc4ccncc4)CCO3)cn2)cc1` (stereo not shown) [Compound 141] gave an activation at 10 µM of under 30%.

In the case of `Cc1ccc(OCCN(C)C(=O)Cn2cc(NC(=O)C3CC(Oc4cccc(C)n4)C3)cn2)cc1` (stereo not shown) [Compound 142], the activation at 10 µM is under 30%.

With `Cc1ccc(OC2CCC23CN(C(=O)Cn2cc(NC(=O)C4CC(Oc5ccncc5)C4)cn2)C3)cc1` (stereo not shown) [Compound 144], the activation at 10 µM is at least 50%.

`O=C(Cn1cc(NC(=O)[C@H]2C[C@H](Oc3ccccn3)C2)cn1)N1CCC[C@H](Oc2ccc(C(F)(F)F)cn2)C1` [Compound 145]: the activation at 10 µM was under 30%.

As for `Cc1ccc(O[C@H]2CCCN(C(=O)Cn3cc(NC(=O)COc4ccccc4)cn3)C2)cc1` [Compound 146, N-[1-[2-[(3S)-3-(4-methylphenoxy)-1-piperidyl]-2-oxo-ethyl]pyrazol-4-yl]-2-phenoxy-acetamide], the activation at 10 µM was under 30%.

As to `Cc1ccc(O[C@H]2CCCN(C(=O)Cn3cc(NC(=O)C4COc5ccccc5O4)cn3)C2)cc1` (stereo partly shown) [Compound 147], the activation at 10 µM was under 30%.

Turning to `Cc1ccc(O[C@H]2CCCN(C(=O)Cn3cc(NC(=O)COc4cccnc4)cn3)C2)cc1` [Compound 149], the activation at 10 µM is under 30%.

Compound `Cc1ccc(O[C@H]2CCCN(C(=O)Cn3cc(NC(=O)COc4ccccn4)cn3)C2)cc1` [Compound 150] displayed an activation at 10 µM of under 30%.

The compound `Cc1ccc(O[C@H]2CCCN(C(=O)Cn3cc(NC(=O)C4CC(Oc5cccc(C)n5)C4)cn3)C2)cc1` (stereo partly shown) [Compound 151] returned an activation at 10 µM of under 30%.

Take `Cc1ccc(O[C@H]2CCCN(C(=O)Cn3cc(NC(=O)C4CC(Oc5ccncc5)C4)cn3)C2)cc1` (stereo partly shown) [Compound 152]: the activation at 10 µM was at least 50%.

In the case of `Cc1ccc(OCCN(C)C(=O)Cn2cc(NC(=O)c3nc4ccccc4o3)cn2)cc1` [Compound 153], the activation at 10 µM lay in the range of 30 to 50%.

Consider `Cc1ccc(OCCN(C)C(=O)Cn2cc(NC(=O)C3COc4ccccc4O3)cn2)cc1` (stereo not shown) [Compound 154], for which the activation at 10 µM was at least 50%.

As for `Cc1ccc(O[C@H]2CCCN(C(=O)Cn3cc(NC(=O)C4COc5ccccc5N4)cn3)C2)cc1` (stereo partly shown) [Compound 155], the activation at 10 µM is under 30%.

The compound `Cc1ccc(OCCN(C)C(=O)Cn2cc(NC(=O)[C@@H]3COc4ccccc4O3)cn2)cc1` [Compound 156] returned an activation at 10 µM of under 30%.

For `COc1ncc(Cl)cc1NCCC(=O)Nc1cnn(CC(=O)N2CCC[C@H](Oc3ccc(C)cc3)C2)c1` [Compound 157], the activation at 10 µM is at least 50%.

Compound `COc1ncc(Cl)cc1NCCC(=O)Nc1cnn(CC(=O)N2CCC[C@@H](Oc3ccc(C)cc3)C2)c1` [Compound 158] returned an activation at 10 µM of under 30%.

Compound `Cc1ccc(O[C@H]2CCCN(C(=O)Cn3cc(NC(=O)CCOc4c(F)ccnc4C(C)C)cn3)C2)cc1` [Compound 159, (S)-3-((4-fluoro-2-isopropylpyridine-3-yl)oxy)-N-(1-(2-oxo-2-(3-(p-tolyloxy)piperidin-1-yl)ethyl)-1H-pyrazol-4-yl)propanamide] showed an activation at 10 µM of at least 50%.

In the case of `CC(C)c1cncc(F)c1OCCC(=O)Nc1cnn(CC(=O)N2CCC[C@H](Oc3ccc(OC(F)(F)F)cn3)C2)c1` [Compound 160], the activation at 10 µM was in the range of 30 to 50%.

For the compound `CC(C)c1cncc(F)c1OCCC(=O)Nc1cnn(CC(=O)N2CCC[C@H](Oc3ccc(C(F)(F)F)cn3)C2)c1` [Compound 161], the activation at 10 µM is at least 50%.

In turn, `Cc1ccc(OCCN(C)C(=O)Cn2cc(NC(=O)[C@H]3C[C@H](Oc4c(F)cncc4C(C)C)C3)cn2)cc1` [Compound 162] returned an activation at 10 µM of under 30%.

For `Cc1ccc(OC2CCC23CN(C(=O)Cn2cc(NC(=O)C4CC(Oc5c(F)cncc5C(C)C)C4)cn2)C3)cc1` (stereo not shown) [Compound 163], the activation at 10 µM is at least 50%.

For the compound `Cc1ccc(O[C@H]2CCCN(C(=O)Cn3cc(NC(=O)CCOc4ncncc4N)cn3)C2)cc1` [Compound 164, (S)-3-((5-aminopyrimidin-4-yl)oxy)-N-(1-(2-oxo-2-(3-(p-tolyloxy)piperidin-1-yl)ethyl)-1H-pyrazol-4-yl)propanamide], the activation at 10 µM is at least 50%.

Regarding `Cc1ccc(O[C@H]2CCCN(C(=O)Cn3cc(NC(=O)CCOc4c(Br)cncc4[N+](=O)[O-])cn3)C2)cc1` [Compound 165], the activation at 10 µM is at least 50%.

Consider `Cc1ccc(OCCN(C)C(=O)Cn2cc(NC(=O)C3CCCC3Nc3ccnc(F)n3)cn2)cc1` (stereo not shown) [Compound 166], for which the activation at 10 µM was under 30%.

Consider `Cc1ccc(OCCN(C)C(=O)Cn2cc(NC(=O)C3CCC3Nc3ccnc(F)n3)cn2)cc1` (stereo not shown) [Compound 167], for which the activation at 10 µM lay within 30 to 50%.

`Cc1ccc(OCCN(C)C(=O)Cn2cc(NC(=O)C34CC(Nc5ncc(F)cn5)(C3)C4)cn2)cc1` [Compound 169, 3-[(5-fluoropyrimidin-2-yl)amino]-N-[1-[2-[methyl-[2-(4-methylphenoxy)ethyl]amino]-2-oxo-ethyl]pyrazol-4-yl]bicyclo[1.1.1]pentane-1-carboxamide]: the activation at 10 µM was under 30%.

Compound `Cc1ccc(OCCN(C)C(=O)Cn2cc(NC(=O)C3CC(Nc4ncc(F)cn4)C3)cn2)cc1` (stereo not shown) [Compound 170] showed an activation at 10 µM of under 30%.

On to `Cc1ccc(OC2CCCCN(C(=O)Cn3cc(NC(=O)CCNc4ccnc(F)n4)cn3)C2)cc1` (stereo not shown) [Compound 171, 3-[(2-fluoropyrimidin-4-yl)amino]-N-[1-[2-[3-(4-methylphenoxy)azepan-1-yl]-2-oxo-ethyl]pyrazol-4-yl]propanamide], for which the activation at 10 µM is under 30%.

`Cc1ccc(OC2CCCN(C(=O)Cn3cc(NC(=O)CCNc4ccnc(F)n4)cn3)CC2)cc1` (stereo not shown) [Compound 172] had an activation at 10 µM of under 30%.

`Cc1c(F)cc(O[C@@H]2CCCN(C(=O)Cn3cc(NC(=O)CCNc4ccnc(F)n4)cn3)C2)cc1F` [Compound 173] showed an activation at 10 µM of 30 to 50%.

Regarding `Cc1ccc(OC2CC3CC2N(C(=O)Cn2cc(NC(=O)CCNc4ccnc(F)n4)cn2)C3)cc1` (stereo not shown) [Compound 174], the activation at 10 µM is under 30%.

For `Cc1ccc(OC2CCC3(C2)CN(C(=O)Cn2cc(NC(=O)CCNc4ccnc(F)n4)cn2)C3)cc1` (stereo not shown) [Compound 175], the activation at 10 µM was under 30%.

Turning to `Cc1ccc(O[C@@H]2CCCN(C(=O)Cn3cc(NC(=O)CCNc4ccnc(F)n4)cn3)C2)cc1` [Compound 176], the activation at 10 µM was in the range of 30 to 50%.

For `Cc1ccc(OC2CCC23CN(C(=O)Cn2cc(NC(=O)CCNc4ccnc(F)n4)cn2)C3)cc1` (stereo not shown) [Compound 177], the activation at 10 µM was at least 50%.

With `Cc1ccc(O[C@H]2CCCN(C(=O)Cn3cc(NC(=O)CCNc4ccnc(F)n4)cn3)C2)cc1` [Compound 178], the activation at 10 µM was at least 50%.

In turn, `O=C(CCNc1ccnc(F)n1)Nc1cnn(CC(=O)N2CCC[C@H](Oc3ccc(C(F)F)cc3)C2)c1` [Compound 179] showed an activation at 10 µM of at least 50%.

With `Cc1c(F)cc(O[C@H]2CCCN(C(=O)Cn3cc(NC(=O)CCNc4ccnc(F)n4)cn3)C2)cc1F` [Compound 180], the activation at 10 µM was at least 50%.

In turn, `Cc1ccc(OC2CC3(C2)CN(C(=O)Cn2cc(NC(=O)CCNc4ccnc(F)n4)cn2)C3)cc1` [Compound 181] came in with an activation at 10 µM of under 30%.

`Cc1ccc(O[C@H]2CCCN(C(=O)Cn3cc(NC(=O)CCNc4c(F)cncc4Cl)cn3)C2)cc1` [Compound 183]: the activation at 10 µM was at least 50%.

`Cc1ccc(O[C@@H]2CCCN(C(=O)Cn3cc(NC(=O)CCNc4c(F)cncc4Cl)cn3)C2)cc1` [Compound 184] returned an activation at 10 µM of at least 50%.

On to `Cc1ccc(O[C@H]2CCCN(C(=O)Cn3cc(NC(=O)[C@@H]4COc5ccccc5O4)cn3)C2)cc1` [Compound 185], for which the activation at 10 µM is under 30%.

As to `O=C(CCNc1ccnc(F)n1)Nc1cnn(CC(=O)N2CCC[C@@H](Oc3ccc(C(F)F)cc3)C2)c1` [Compound 187], the activation at 10 µM is under 30%.

The values above are taken from patent US20260193244A1 (Protego Biopharma, Inc., priority 2022, published 2026).
